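A five-concentration, 48-hour dose response in 96-well plates underlies each endpoint, interpolated linearly between surrounding concentrations. The concentration for full growth arrest is given as TGI.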

Among the test systems are DU-145 prostate; SR leukemia; RXF 393 renal; RPMI-8226 leukemia; ACHN renal; SF-295 CNS; SK-MEL-28 melanoma; MDA-N; NCI-H460 lung; CAKI-1 renal; 786-0 renal.
What all share (test): growth of human tumour cells (NCI), 48 h

For `O=C(CN1CCCCC1)c1ccc2[nH]c(=O)oc2c1`, the TGI in the test on DU-145 prostate, in the test with SR leukemia, with RXF 393 renal, in the test with RPMI-8226 leukemia, with ACHN renal and in the test on SF-295 CNS was over 100 µM throughout. For the same compound, the TGI in the test with SK-MEL-28 melanoma, in the test with MDA-N, in the test with NCI-H460 lung, in the test on CAKI-1 renal and with 786-0 renal was over 100 µM each time.

With `Cc1ccc2[nH]c3c(c2c1)C1CCC(C(C)(C)C)CC1C1C(=O)N(c2ccc(Oc4ccccc4)cc2)C(=O)C31` (configuration not stated), the TGI in the test with DU-145 prostate was over 100 µM; in the test with SR leukemia, 3.07 µM; in the test with RXF 393 renal, 29.1 µM; in the test with RPMI-8226 leukemia it was 40.5 µM; in the test on ACHN renal, over 100 µM; with SF-295 CNS it was over 100 µM. Moreover, the TGI in the test on SK-MEL-28 melanoma is over 100 µM; in the test with MDA-N, over 100 µM; in the test on NCI-H460 lung, over 100 µM; in the test with CAKI-1 renal it was 45.4 µM; in the test with 786-0 renal it was 28.3 µM.

For the origin of these results see PubChem BioAssay (NCI).
